In ChEMBL document CHEMBL4665719, “Development of SKI-349, a dual-targeted inhibitor of sphingosine kinase and microtubule polymerization” (Bioorg Med Chem Lett, 2020):
One block for each compound: values may come before it. Activity calls are given as the source filed them. The rule behind the calls is not given here.

What was measured:
[1] = target: T1, Tubulin (Homo sapiens) (UniProt P68371+Q9H4B7+P0DPH7+P68366+Q13509+Q71U36+P04350+Q3ZCM7+P07437+P68363+Q9BQE3+Q6PEY2+Q13885+Q9BVA1+Q9BUF5); experiment: Inhibition of tubulin polymerization in human MOLM-13 cells assessed as disruption of microtubule network at 200 nM after 18 hrs by FITC-staining based flow cytometry analysis; type: cell-based
[2] = target: T2, Sphingosine kinase 1/2 (Homo sapiens) (UniProt Q9NRA0+Q9NYA1); experiment: Inhibition of SPHK1/SPHK2 in human HL-60 cells assessed as induction of apoptosis by measuring spindle assembly checkpoint arrest at 20 nM after 16 hrs by Western blot analysis; type: cell-based
T2 sequence (Q9NRA0 whole entry, looked up): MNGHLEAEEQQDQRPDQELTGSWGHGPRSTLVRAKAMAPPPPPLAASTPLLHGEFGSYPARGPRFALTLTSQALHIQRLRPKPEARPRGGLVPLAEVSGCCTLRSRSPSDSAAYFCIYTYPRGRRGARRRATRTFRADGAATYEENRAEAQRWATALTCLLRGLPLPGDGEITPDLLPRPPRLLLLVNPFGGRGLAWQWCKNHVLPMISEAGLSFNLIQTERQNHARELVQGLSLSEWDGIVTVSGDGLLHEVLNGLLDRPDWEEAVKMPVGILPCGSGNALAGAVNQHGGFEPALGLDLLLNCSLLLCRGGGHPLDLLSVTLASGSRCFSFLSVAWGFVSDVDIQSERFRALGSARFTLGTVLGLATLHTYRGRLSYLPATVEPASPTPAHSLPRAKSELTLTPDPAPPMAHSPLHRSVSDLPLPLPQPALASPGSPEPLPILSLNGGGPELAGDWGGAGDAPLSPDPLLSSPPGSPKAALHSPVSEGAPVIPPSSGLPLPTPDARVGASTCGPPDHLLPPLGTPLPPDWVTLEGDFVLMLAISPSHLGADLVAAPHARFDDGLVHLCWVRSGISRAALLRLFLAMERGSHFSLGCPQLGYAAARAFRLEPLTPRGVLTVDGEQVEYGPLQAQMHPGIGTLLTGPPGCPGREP
T2 sequence (Q9NYA1 whole entry, looked up): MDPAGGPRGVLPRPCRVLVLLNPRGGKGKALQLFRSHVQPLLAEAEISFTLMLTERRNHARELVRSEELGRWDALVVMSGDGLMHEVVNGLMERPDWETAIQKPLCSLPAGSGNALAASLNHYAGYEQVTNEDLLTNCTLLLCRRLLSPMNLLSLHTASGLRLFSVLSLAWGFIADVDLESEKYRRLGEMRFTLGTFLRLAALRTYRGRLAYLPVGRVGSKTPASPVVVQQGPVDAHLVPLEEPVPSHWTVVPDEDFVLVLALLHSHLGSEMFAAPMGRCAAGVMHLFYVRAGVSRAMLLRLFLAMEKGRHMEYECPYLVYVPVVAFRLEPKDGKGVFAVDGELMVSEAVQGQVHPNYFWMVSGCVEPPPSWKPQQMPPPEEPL

[3] = target: T2, Sphingosine kinase 1/2 (Homo sapiens); experiment: Inhibition of SPHK1/SPHK2 in human HL-60 cells assessed as sphingosine-1-phosphate level assessed per 10^6 cells at 5 uM after 24 hrs by LC-ESI/MS analysis (reference value: 3.1 +/- 0.3 pmol); type: cell-based
[4] = target: T2, Sphingosine kinase 1/2 (Homo sapiens); experiment: Inhibition of SPHK1/SPHK2 in human HL-60 cells assessed as sphingosine level assessed per 10^6 cells at 5 uM after 24 hrs by LC-ESI/MS analysis (reference value: 18.3 +/- 3.5 pmol); type: cell-based
[5] = target: Cyclin-dependent kinase 1 (Homo sapiens) (UniProt P06493); experiment: Activation of CDK1 in human HL60/VCR cells assessed as activation of caspase 7 at 5 uM after 24 hrs in presence of Ro-3306 by Western blot analysis; type: cell-based
Cyclin-dependent kinase 1 (Homo sapiens), sequence (P06493 whole entry, looked up): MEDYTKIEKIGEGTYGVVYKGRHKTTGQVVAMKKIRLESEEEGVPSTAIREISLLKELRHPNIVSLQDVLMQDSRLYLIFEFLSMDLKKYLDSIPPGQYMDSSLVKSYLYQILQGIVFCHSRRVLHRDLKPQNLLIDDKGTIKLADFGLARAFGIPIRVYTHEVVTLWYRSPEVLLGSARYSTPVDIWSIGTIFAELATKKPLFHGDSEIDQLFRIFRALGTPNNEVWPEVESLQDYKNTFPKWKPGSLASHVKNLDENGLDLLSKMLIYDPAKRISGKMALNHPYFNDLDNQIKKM

[6] = target: T2, Sphingosine kinase 1/2 (Homo sapiens); experiment: Inhibition of SPHK1/SPHK2 in human HL-60 cells assessed as C18:0 ceramide level assessed per 10^6 cells at 5 uM after 24 hrs by LC-ESI/MS analysis (reference value: 1.6 +/- 0.2 pmol); type: cell-based
[7] = system: HL-60; experiment: Cytotoxicity against human HL-60 cells assessed as reduction in cell viability after 48 hrs by MTT assay; type: functional, cell-based; conditions: HL-60, 48 h
[8] = target: Cyclin-dependent kinase 1 (Homo sapiens) (UniProt P06493); experiment: Activation of CDK1 in human HL-60 cells assessed as activation of caspase 7 at 5 uM after 24 hrs in presence of Ro-3306 by Western blot analysis; type: cell-based
[9] = Cytotoxicity against human HL60/VCR cells assessed as reduction in cell viability after 48 hrs by MTT assay; type: functional, cell-based
[10] = target: Cyclin-dependent kinase 1 (Homo sapiens) (UniProt P06493); experiment: Activation of CDK1 in human HL-60 cells assessed as induction of Bcl2 phosphorylation at Ser70 residue at 5 uM after 24 hrs in presence of Ro-3306 by Western blot analysis; type: cell-based
[11] = target: Cyclin-dependent kinase 1 (Homo sapiens) (UniProt P06493); experiment: Activation of CDK1 in human HL60/VCR cells assessed as induction of Bcl2 phosphorylation at Ser70 residue at 5 uM after 24 hrs in presence of Ro-3306 by Western blot analysis; type: cell-based
[12] = target: T2, Sphingosine kinase 1/2 (Homo sapiens); experiment: Inhibition of SPHK1/SPHK2 in human HL-60 cells assessed as C16:0 ceramide level assessed per 10^6 cells at 5 uM after 24 hrs by LC-ESI/MS analysis (reference value: 33.5 +/- 4.1 pmol); type: cell-based
[13] = target: Sphingosine kinase 1 (Homo sapiens, UniProt Q9NYA1); experiment: Inhibition of recombinant His6x-tagged human SphK1 expressed in HEK293 cells assessed as reduction in S1P formation using D-erythro-sphingosine as substrate by […]
Sphingosine kinase 1, sequence (Q9NYA1 whole entry): as the sequence (Q9NYA1 whole entry, looked up) above

[14] = target: T2, Sphingosine kinase 1/2 (Homo sapiens); experiment: Inhibition of SPHK1/SPHK2 in human HL-60 cells assessed as induction of apoptosis by measuring spindle assembly checkpoint arrest at 3 nM after 16 hrs by Western blot analysis; type: cell-based
[15] = target: T1, Tubulin (Homo sapiens); experiment: Inhibition of tubulin polymerization in human MOLM-13 cells assessed as disruption of microtubule network at 100 nM after 18 hrs by FITC-staining based flow cytometry analysis; type: cell-based

- inhibition [1]: Active
SMILES: CC[C@]1(O)C[C@H]2CN(CCc3c([nH]c4ccccc34)[C@@](C(=O)OC)(c3cc4c(cc3OC)N(C=O)[C@H]3[C@@](O)(C(=O)OC)[C@H](OC(C)=O)[C@]5(CC)C=CCN6CC[C@]43[C@@H]65)C2)C1

- Activity [2]: Active
SMILES: CC[C@@H]1C(=O)N(C)c2cnc(Nc3ccc(C(=O)N[C@H]4CC[C@H](N5CCN(CC6CC6)CC5)CC4)cc3OC)nc2N1C(C)C

- Activity [3]: 3.2 pmol
- Activity [4]: 28.7 pmol
- Activity [5]: inactive
- Activity [6]: 4.8 pmol
- Activity [8]: inactive
- Activity [10]: inactive
- Activity [11]: inactive
- Activity [12]: 84 pmol
- IC50 [13]: 3000 nM
SMILES: COc1ccc(-c2cc(C(=O)N/N=C(\C)c3ccc(OC)c(OC)c3)[nH]n2)cc1
- IC50 [7]: 470 nM
- IC50 [9]: 1100 nM

- Activity [14]: Active
SMILES: Cc1ccc(C(=O)N(CCCN)[C@@H](c2nc3cc(Cl)ccc3c(=O)n2Cc2ccccc2)C(C)C)cc1

- inhibition [15]: Active
SMILES: CC(=O)O[C@H]1C(=O)[C@@]2(C)[C@H]([C@H](OC(=O)c3ccccc3)[C@]3(O)C[C@H](OC(=O)[C@H](O)[C@@H](NC(=O)c4ccccc4)c4ccccc4)C(C)=C1C3(C)C)[C@]1(OC(C)=O)CO[C@@H]1C[C@@H]2O
